Data: patent US20230014352A1, “INHALED STATINS AS BRONCHODILATORS TO IMPROVE LUNG FUNCTION IN RESPIRATORY DISEASES” (priority 2019, published 2023)

Assays:
[1] = system: bronchial airways of human PCLS; test: Histamine-induced airway constriction in human PCLS; settings: pre-treated 24 hrs, compared to vehicle, FIG. 11C
Text: A non-transplantable non-asthmatic human donor lung was obtained through the Gift of Hope/Regional Organ Bank of Illinois, and sliced as per published protocols. Briefly, the lung lobe was filled with 1.5% low melting temperature agarose (Type IX; Sigma, St. Louis, Mo.) in Hanks balanced salt solution (pH=7.4; Invitrogen, Carlsbad, Calif.), and sliced using a VT1200S vibrating blade microtome (Leica Microsystems, Bannockburn, Ill.) to create 250 μm thick slices. Slices were cryopreserved till the day of the experiment.
Slices were treated with pitavastatin (2 μM) for 24 hrs, before challenge with histamine (1 μM). Airway constriction was measured as luminal area changes in response to increasing doses of histamine. In both sets of PCLS samples, airway lumen area was quantified from bright field images using the Fiji image analysis software.

[2] = system: primary human airway smooth muscle (ASM) cells; test: Contractile force screening (CFS), basal ASM cell contraction (strain energy); type: cell-based; settings: for strain energy (ASM contraction): compared to pravastatin; for basal ASM cell contraction: FIG. 1A/1D; for reversibility of force inhibitory effect: media without Pit after treatment, FIG. 10D
Description: Primary human airway smooth muscle (ASM) cells derived from both non-asthmatic and asthmatic donors were obtained from the Gift of Hope Organ and Tissue Donor Network. These cells have been well-characterized previously (see for example H. Yoshie et al., Biophys J (2018) 114(9):2194-99). All measurements were performed using cells at passage 5-8 from three non-asthmatic donors. Cells were grown on either 10% serum-containing F12 complete media, or serum-deprived media supplemented with insulin, transferrin, and selenium (Corning, Tewksbury, Mass.). Contractile Force Screening: Human ASM cells were grown to confluence in 96-well plates on custom NuSilTM 8100 elastic substrates (Avantor, Inc., Radnor, Pa.) (R. […] Fluorescent beads (diameter 400 nm) were embedded in the substrate surface to enable traction force calculations based on their displacements. To measure fractions, an inverted epi-fluorescence microscope (DMI 6000B, Leica Inc., Germany) equipped with a heated chamber (37° C.), a monochrome camera ([…]), and a motorized stage was used. Spatial images were recorded of substrate-embedded fluorescent beads at 10× magnification. Based on the bead displacements (resolution 15 μm) relative to a cell-free model, together with knowledge of substrate stiffness and thickness, fractions were computed using the approach of Fourier Transform Traction Cytometry ([…] et al., Pharmacol Ther (2014) 143(1):87-110), modified to the case of cell monolayers ([…] et al., Cell (2007) 129(3):511-22). From each fraction map, the root-mean-squared traction (RMST) value and strain energy were calculated and reported as a measure of normal contraction in the monolayer. On a well-by-well basis, the ratio of the strain energy after vs. before treatment was computed, and all values of a given treatment group were normalized to the mean of each treatment group. Comparison of Statins: […] MA is the immediate product of HMGCR action on HMB-CoA, so addition of MA would reverse the effect of statin inhibition of HMGCR. […] Simvastatin-acid (SA), atorvastatin, pravastatin, and pitavastatin were examined with CFS to determine the dose response of the ASM relaxation effect. […] From each ASM force map, the strain energy (i.e., the energy that is imparted to the substrate by the contractile cells, in pJ) was computed, to represent the average cellular contraction.

primary ASM cells = test: Potentiation of isoproterenol relaxation of histamine-induced ASM contraction; type: cell-based, human; settings: FIG. 17A
Description: Primary ASM cells from a non-asthmatic donor were serum-deprived for 2 days in a tissue culture flask, and then cultured to confluence for an additional 24 hrs in serum-free medium in 96-well traction force measurement plates (3 kPa stiffness). The pre-treatment contractile force was measured as described above. Cells were then treated with either vehicle (PEG400), control (serum-free medium) or Pitavastatin at concentrations of 10^−5 M, 10^−6 M, 10^−7 M, and 10^−8 M, for 24 hrs, and the baseline contractile force measured. ASM cells were then acutely treated with histamine (10 μM) for 30 minutes, and the histamine-induced contractile force was measured. The cells were then treated with isoproterenol (10^−6, 10^−7, 10^−8, 10^−9, and 10^−11 M) for 30 minutes, and the isoproterenol-relaxed ASM contractile force was measured. The percent “histamine contraction” was calculated as the ratio of isoproterenol-relaxed ASM contractile force to histamine-induced contractile force. […] FIG. 17B details the data boxed in FIG. 17A.

ASM cells = test: RealTime-Glo Annexin V Apoptosis and Necrosis assay; type: cell-based, human
Description: Lack of apoptosis: Some studies have shown that statins at high enough doses can reduce the viability of vascular smooth muscle cells, epithelial cells, and endothelial cells (S. Ghavami et al., Biochim Biophys Acta (2014) 1843(7):1259-71; T. P. Miettinen et al., Cell Rep (2015) 13(11):2610-20).
RealTime-Glo™ Annexin V Apoptosis and Necrosis assay was performed by growing ASM cells on 96-well white cell culture plate according to the manufacturer's instructions (Promega Inc). […] In this real-time annexin V binding assay, the luminescence signal was detected for apoptosis and necrosis was detected with a fluorescence signal by using a SpectraMax® plate reader. […] (20 μg/mL) was used as a positive control (FIG. 2).

[3] = 1 μM, serum-deprived media, FIG. 10B

**Q.** Which results are given for O=C(O)C[C@H](O)C[C@H](O)/C=C/c1c(C2CC2)nc2ccccc2c1-c1ccc(F)cc1 [pitavastatin]?
**A.** 1 μM histamine-induced airway constriction (lumen narrowing) [1]: significantly inhibited; 1 μM histamine-induced airway constriction (lumen narrowing) ([1]; listed as Pit): significantly reduced; inhibitory potency on ASM contraction, dose-response ranking ([2]; 0-10 μM, FIG. 1C, 1D): most significant effect; strain energy (ASM contraction) ([2]; 0.4 μM, 24 hours, FIG. 1C): significant reduction in strain energy; basal ASM cell contraction ([2]; 1 μM, 24 hours): potently and significantly inhibits basal ASM contraction; basal ASM cell contraction ([2]; 1 μM, 24 hours, listed as Pitavastatin): more potent; relaxation effect at 24 hrs compared to simvastatin [2, 3]: more significant at 24 hrs; relaxation effect at 24 hrs compared to simvastatin ([2]; 1 μM, serum-deprived media, FIG. 10B, listed as Pit): significantly more efficacious than Sim; ASM relaxation over time compared to simvastatin ([2]; 1 μM, all time points including 24 hours, with or without media starvation, FIG. 4C): greater ASM relaxation than simvastatin; reversibility of force inhibitory effect ([2]; 1 μM): reversible; reversibility of force inhibitory effect ([2]; 1 μM, listed as Pit): reversed; ASM contraction over time compared to control [2, 3]: reduced ASM contraction time-dependently; strain energy (ASM contraction) ([2]; 2 and 10 μM, 24 hours, FIG. 1C): significantly (and further) reduce strain energy; ASM contraction / ASM cell relaxation ([2]; FIG. 10A): inhibited ASM contraction; dose-dependent effect on ASM ([2]; primary ASM cells from three different human donors, FIG. 3): dose-dependently relax ASM; potency on basal ASM contraction relative to simvastatin ([2]; same dose, 1 μM, 24 hours, FIG. 1D): more potent than simvastatin; start of ASM relaxing effects ([2]; time-dependent effects, FIG. 4C): 4 h; effect of isoproterenol on histamine contraction compared to vehicle (primary ASM cells; 10^−7 M, 10^−6 M and 10^−5 M pitavastatin 24 hrs, 10^−9 M and 10^−8 M isoproterenol): potentiated; degree of relaxation compared to vehicle (primary ASM cells; all concentrations of statin, 10^−11 M isoproterenol): not substantially different from vehicle; apoptosis and necrosis (cell death) (ASM cells): no evidence of apoptosis or cell death; cellular toxicity (ASM cells): did not demonstrate any
